pEC50: −log10 of the molar value.
What was measured:
RSV strain A2 = experiment: RSV Cellomics assay for RSV A2 antiviral activity (EC50-RSV-Hep2-96-Cellomics); format: cell-based; conditions: human respiratory syncytial virus, HEp-2, 72 h; Hep2 cells, RSV strain A2, MOI=0.05, 3 days, RSV F protein immunofluorescence; read-out: EC50-RSV-HEp2-96-Cellomics Example B1
Method: Example B1: RSV Cellomics Assay for RSV A2 Antiviral Activity (EC50-RSV-Hep2-96-Cellomics)
8×10^3 Hep2 cells are seeded into 96 well plates in 100 μL of media (DMEM supplemented with GlutaMAX, 10% FBS and Pen/Strep) and briefly spun at 50×g for 1 minute to attach cells. Cells were further allowed to attach with overnight incubation at 37° C.+5% CO2. The following day, the media was aspirated and 100 μL of fresh DMEM media containing 2% FBS was added. A three-fold dilution series of compounds of interest are then added to the plate using the Tecan D300e dispenser and the plate is normalized to the well with the highest volume of DMSO. The cells are next infected by adding 100 μL of media containing RSV strain A2 at an MOI=0.05 and the plates incubated for 3 days at 37° C.+5% CO2. Following the incubation, the media is removed, and the cells are washed once with 250 μL PBS and fixed with 250 μL ice-cold 100% methanol for 10 minutes at 4 C. The methanol is then removed and the plates air dried for 5 minutes and then washed once with 250 μL PBS to remove any residual methanol. The wells are then blocked 60 μL/well of BlockAid (B10710, Thermo-Fisher) for 1 hour at RT on rocker at which point the blocking buffer is carefully aspirated. Primary antibody against the RSV F protein (MAB 858-1) is then diluted 1:2000 in SuperBlock (37515, Thermo Fisher) and 50 μL of the primary antibody solution is added to each well. The plates are incubated at room temperature for 1 hour with gentle agitation and then washed with 250 μL of PBS-Tween 3 times. A goat anti-mouse AlexaFluor 647 conjugated secondary antibody (Sigma, A21235) is then diluted 1:2000 and Hoescht 33342 (H3570) at 1:1000 in SuperBlock and 50 μL added to the wells for 1 hour at 37° C. After incubation the antibody solution is aspirated, and the wells are then washed with 250 μL of PBS-Tween 3 times. To keep cells from drying out, 100 μL of PBS is added to each well and the plates are sealed with black plate seal. Fluorescence at the 647 nm wavelength is measured using a Cellomics CellInsight CX7 machine. Compound activity is determined as a percentage of the % positive cells (or average intensity) compared to DMSO treated RSV infected well controls following subtraction of uninfected controls. The EC50 values are then calculated using nonlinear regression analysis in GraphPad Prism.

[1] = test system: Respiratory syncytial virus recombinant with luciferase (RSV-Luc5); experiment: NHBE RSV-Luc5 384-well assay (EC50 RSVFLUC NHBE-384); format: cell-based; conditions: human respiratory syncytial virus, 72 h, read-out: EC50 RSV FLUC NHBE 384 V2 (per Ex. U)
Excerpt: Example U. NHBE RSV-Luc5 384-Well Assay (EC50 RSVFLUC NHBE-384)
Normal Human Bronchial Epithelial (NHBE) cells were purchased from Lonza (Walkersville, MD Cat #CC2540) and maintained in BEGM Bronchial Epithelial Cell Growth Medium BulletKit (Lonza CC-3170).
Cells were thawed, expanded, and were used for experiments at passage 2. Respiratory syncytial virus recombinant with luciferase (RSV-Luc5) (≥1×107 Infectious Units/ml (IU/ml) determined by TCID50) was purchased from Microbiologics (Saint Cloud, MN). Viral replication was determined in NHBE cells in the following manner.
Compounds are prepared in 100% DMSO in 384-well polypropylene plates (Greiner, Monroe, NC, Cat #784201) with 8 compounds per plate in grouped replicates of 4 at 10 serially diluted concentrations (1:3). The serially diluted compounds were transferred to low dead volume Echo plates (Labcyte, Sunnyvale, CA, Cat #LP-0200).
The test compounds were spotted to 384-well assay plates (Greiner, Monroe, NC, Cat #781091) at 200 nL per well. NHBE cells were harvested and suspended in BEGM Bronchial Epithelial Cell Growth Medium BulletKit and seeded to the pre-spotted assay plates at 5,000 cells per well in 30 μL. RSV-Luc5 virus was diluted in BEGM Bronchial Epithelial Cell Growth Medium BulletKit at 500,000 Infectious Units (IU) per mL and 10 μL per well was added to the assay plates containing cells and compounds, for an MOI of 1. The assay plates were incubated for 3 days at 37° C. and 5% CO2. At the end of incubation, One-Glo reagent (Promega, Madison, WI, Cat #E6120) was prepared. The assay plates and One-Glo reagent were equilibrated to room temperature for at least 15 minutes. 40 μL per well of One-Glo reagent was added and the plates were incubated at room temperature for 15 minutes before reading the luminescence signal on an En Vision multimode plate reader (Perkin Elmer, Waltham, MA). Remdesivir was used as positive control and DMSO was used as negative control. Values were normalized to the positive and negative controls (as 0% and 100% replication, respectively) and data was fitted using non-linear regression analysis by Gilead's dose response tool. The EC50 value for each compound was defined as the concentration reducing the viral replication by 50%.

N#Cc1cc(F)cc(CO[C@@H](CCCCCCCCCCCCCCCCCC(F)(F)F)COP(=O)(O)OC[C@@]2(C#N)O[C@@H](c3ccc4c(N)ncnn34)[C@H](O)[C@@H]2O)c1 [Compound 3, ((2R,3S,4R,5S)-5-(4-aminopyrrolo[2,1-f][1,2,4]triazin-7-yl)-2-cyano-3,4-dihydroxytetrahydrofuran-2-yl)methyl ((S)-2-((3-cyano-5-fluorobenzyl)oxy)-20,20,20-trifluoroicosyl) hydrogen phosphate]
pEC50 (RSV strain A2): 6.38
pEC50 [1]: 7.36

N#C[C@]1(COP(=O)(O)OCCCCCCCCCCCCCCCCCCCC(F)(F)F)O[C@@H](c2ccc3c(N)ncnn23)[C@H](O)[C@@H]1O [Compound 5, ((2R,3S,4R,5S)-5-(4-aminopyrrolo[2,1-f][1,2,4]triazin-7-yl)-2-cyano-3,4-dihydroxytetrahydrofuran-2-yl)methyl (20,20,20-trifluoroicosyl) hydrogen phosphate]
pEC50 (RSV strain A2): 5.47
pEC50 [1]: 5.35

N#Cc1cc(F)cc(CO[C@H](CCCCCCCCCCCCCCCCC(F)F)COP(=O)(O)OC[C@@]2(C#N)O[C@@H](c3ccc4c(N)ncnn34)[C@H](O)[C@@H]2O)c1 [Compound 4, ((2R,3S,4R,5S)-5-(4-aminopyrrolo[2,1-f][1,2,4]triazin-7-yl)-2-cyano-3,4-dihydroxytetrahydrofuran-2-yl)methyl ((R)-2-((3-cyano-5-fluorobenzyl)oxy)-19,19-difluorononadecyl) hydrogen phosphate]
pEC50 (RSV strain A2): 6.77
pEC50 [1]: 6.97

CN(C)CCNc1cccc(CO[C@@H](CCCCCCCCCCCCCCCCCC(F)(F)F)COP(=O)(O)OC[C@@]2(C#N)O[C@@H](c3ccc4c(N)ncnn34)[C@H](O)[C@@H]2O)c1 [Compound 11, ((2R,3S,4R,5S)-5-(4-aminopyrrolo[2,1-f][1,2,4]triazin-7-yl)-2-cyano-3,4-dihydroxytetrahydrofuran-2-yl)methyl ((S)-2-((3-((2-(dimethylamino)ethyl)amino)benzyl)oxy)-20,20,20-trifluoroicosyl) hydrogen phosphate]
pEC50 (RSV strain A2): 4.90
pEC50 [1]: 5.34

COc1cc(C#N)ccc1CO[C@@H](CCCCCCCCCCCCCCCCCC(F)(F)F)COP(=O)(O)OC[C@@]1(C#N)O[C@@H](c2ccc3c(N)ncnn23)[C@H](O)[C@@H]1O [Compound 9, ((2R,3S,4R,5S)-5-(4-aminopyrrolo[2,1-f][1,2,4]triazin-7-yl)-2-cyano-3,4-dihydroxytetrahydrofuran-2-yl)methyl ((S)-2-((4-cyano-2-methoxybenzyl)oxy)-20,20,20-trifluoroicosyl) hydrogen phosphate]
pEC50 (RSV strain A2): 6.67
pEC50 [1]: 6.58

N#Cc1cc(F)cc(CO[C@H](CCCCCCCCCCCCCCCCCCCC(F)(F)F)COP(=O)(O)OC[C@@]2(C#N)O[C@@H](c3ccc4c(N)ncnn34)[C@H](O)[C@@H]2O)c1 [Compound 8, ((2R,3S,4R,5S)-5-(4-aminopyrrolo[2,1-f][1,2,4]triazin-7-yl)-2-cyano-3,4-dihydroxytetrahydrofuran-2-yl)methyl ((R)-2-((3-cyano-5-fluorobenzyl)oxy)-22,22,22-trifluorodocosyl) hydrogen phosphate]
pEC50 (RSV strain A2): 6.63
pEC50 [1]: 6.87

N#Cc1cc(F)cc(CO[C@H](CCCCCCCCCCCCCCCCCC(F)(F)F)COP(=O)(O)OC[C@@]2(C#N)O[C@@H](c3ccc4c(N)ncnn34)[C@H](O)[C@@H]2O)c1 [Compound 10, ((2R,3S,4R,5S)-5-(4-aminopyrrolo[2,1-f][1,2,4]triazin-7-yl)-2-cyano-3,4-dihydroxytetrahydrofuran-2-yl)methyl ((R)-2-((3-cyano-5-fluorobenzyl)oxy)-20,20,20-trifluoroicosyl) hydrogen phosphate]
pEC50 (RSV strain A2): 6.90
pEC50 [1]: 6.93

N#C[C@]1(COP(=O)(O)OC[C@H](CCCCCCCCCCCCCCCCCC(F)(F)F)OCc2ccc3ccccc3n2)O[C@@H](c2ccc3c(N)ncnn23)[C@H](O)[C@@H]1O [Compound 7, ((2R,3S,4R,5S)-5-(4-aminopyrrolo[2,1-f][1,2,4]triazin-7-yl)-2-cyano-3,4-dihydroxytetrahydrofuran-2-yl)methyl ((S)-20,20,20-trifluoro-2-(quinolin-2-ylmethoxy)icosyl) hydrogen phosphate]
pEC50 (RSV strain A2): 5.85
pEC50 [1]: 6.15

N#Cc1cc(F)cc(CO[C@@H](CCCCCCCCCCCCCCCCC(F)(F)F)COP(=O)(O)OC[C@@]2(C#N)O[C@@H](c3ccc4c(N)ncnn34)[C@H](O)[C@@H]2O)c1 [Compound 6, ((2R,3S,4R,5S)-5-(4-aminopyrrolo[2,1-f][1,2,4]triazin-7-yl)-2-cyano-3,4-dihydroxytetrahydrofuran-2-yl)methyl ((S)-2-((3-cyano-5-fluorobenzyl)oxy)-19,19,19-trifluorononadecyl) hydrogen phosphate]
pEC50 (RSV strain A2): 6.53
pEC50 [1]: 7.07

From patent US20240309028A1, “PHOSPHOLIPID COMPOUNDS AND METHODS OF MAKING AND USING THE SAME” (Gilead Sciences, Inc., priority 2023, published 2024)
